Structures can show the parent of a compound that is named as a salt.
Experiments:
[1] = Determination of the microsomal half-life, human liver microsomes; conditions: human, liver microsomes, pH 7.4
Method: (§1) The test substances were incubated in a concentration of 0.5 μM as follows:
(§2) 0.5 μM test substance are preincubated together with liver microsomes from different species (from rat, human or other species) (0.25 mg of microsomal protein/10 in 0.05 M potassium phosphate buffer of pH 7.4 in microtiter plates at 37° C. for 5 min. The reaction is started by adding NADPH (1 mg/mL). After 0, 5, 10, 15, 20 and 30 min., 50 μl aliquots are removed, and the reaction is immediately stopped and cooled with the same volume of acetonitrile. The samples are frozen until analyzed. The remaining concentration of undegraded test substance is determined by MSMS. The half-life (T½) is determined from the gradient of the signal of test substance/unit time plot, it being possible to calculate the half-life of the test substance, assuming first order kinetics, from the decrease in the concentration of the compound with time. The microsomal clearance (mCl) is calculated from mCl=ln 2/T½/(content of microsomal protein in mg/ml)×1000 [ml/min/mg]

[2] = Determination of the microsomal half-life, rat liver microsomes; conditions: rat, liver microsomes, pH 7.4
Method: as §1, §2

PDE10A (human) = molecular target: T1, PDE10A (human) (Homo sapiens, UniProt Q9Y233); test: Measurement of PDE activity (HTRF cAMP kit), human PDE10A; format: biochemical; conditions: PDE enzymatic reaction, substrate 20 nM for PDE10, 60 minutes at 29 C
T1 construct: purchased BPS Bioscience
T1 sequence (Q9Y233 whole entry): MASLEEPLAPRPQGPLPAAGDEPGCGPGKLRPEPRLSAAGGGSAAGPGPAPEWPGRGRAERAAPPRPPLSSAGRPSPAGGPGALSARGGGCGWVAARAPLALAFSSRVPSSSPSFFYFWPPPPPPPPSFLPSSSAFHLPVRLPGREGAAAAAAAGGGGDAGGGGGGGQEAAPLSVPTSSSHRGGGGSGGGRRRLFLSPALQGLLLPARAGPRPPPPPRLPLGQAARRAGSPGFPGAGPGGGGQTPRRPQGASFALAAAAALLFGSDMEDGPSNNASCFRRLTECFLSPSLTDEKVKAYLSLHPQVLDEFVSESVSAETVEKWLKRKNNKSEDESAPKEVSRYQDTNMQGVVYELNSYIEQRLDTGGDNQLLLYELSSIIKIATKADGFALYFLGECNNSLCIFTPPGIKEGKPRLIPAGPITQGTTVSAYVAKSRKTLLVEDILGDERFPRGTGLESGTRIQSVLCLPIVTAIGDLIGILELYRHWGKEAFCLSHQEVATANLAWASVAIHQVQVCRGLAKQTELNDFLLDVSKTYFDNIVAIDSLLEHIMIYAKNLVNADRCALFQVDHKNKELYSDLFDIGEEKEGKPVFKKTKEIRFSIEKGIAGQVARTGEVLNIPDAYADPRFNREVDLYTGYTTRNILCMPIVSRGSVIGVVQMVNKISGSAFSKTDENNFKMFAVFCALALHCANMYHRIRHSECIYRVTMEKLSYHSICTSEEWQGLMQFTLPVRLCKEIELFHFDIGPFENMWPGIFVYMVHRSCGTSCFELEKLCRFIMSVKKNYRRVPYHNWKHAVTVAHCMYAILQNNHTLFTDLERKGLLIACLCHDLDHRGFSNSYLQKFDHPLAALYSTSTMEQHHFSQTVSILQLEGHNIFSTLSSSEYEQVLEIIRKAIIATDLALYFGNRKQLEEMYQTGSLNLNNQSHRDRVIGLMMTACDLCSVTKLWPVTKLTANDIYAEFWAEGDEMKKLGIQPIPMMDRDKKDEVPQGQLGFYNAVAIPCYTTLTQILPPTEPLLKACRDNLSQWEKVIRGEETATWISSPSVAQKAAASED
Outline: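 Recombinant human PDE10A (10–250 pM range across PDEs) with 20 nM cAMP substrate in 20 mM Tris-HCl pH 7.5, 10 mM MgCl2, 0.1% BSA, compound pre-mixed with enzyme. Ran 60 min at 29 °C. Remaining cAMP read by HTRF, converted to % of uninhibited activity, and IC50 fitted.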

Row | microsomal CLint at 0.5 μM [1] [µL/min/mg] | microsomal CLint at 0.5 μM [2] [µL/min/mg] | IC50 (PDE10A (human)) [µM] | SMILES
1 | < 100 | < 100 | 0.1 to 0.2 | Cc1ncc(-c2ccnc3c2C(=O)N(CCc2nc4ccccc4s2)C3)cn1 [compound 445, 6-[2-(1,3-Benzothiazol-2-yl)ethyl]-4-(2-methylpyrimidin-5-yl)-7H-pyrrolo[3,4-b]pyridin-5-one]
2 | < 100 | < 100 | 0.1 to 0.2 | O=C(O)C1CN(c2ccnc3c2C(=O)N(CCc2ccc4ccccc4n2)C3)C1 [compound 446, 1-[5-oxo-6-[2-(2-quinolyl)ethyl]-7H-pyrrolo[3,4-b]pyridin-4-yl]azetidine-3-carboxylic acid]
3 | 100 to 220 | 100 to 220 | < 0.1 | O=C1c2c(OC3COC3)ccnc2CN1CCc1ccc2ccccc2n1 [compound 447, 4-(oxetan-3-yloxy)-6-[2-(2-quinolyl)ethyl]-7H-pyrrolo[3,4-b]pyridin-5-one]
4 | < 100 | < 100 | < 0.1 | COc1ccc(-c2ccncc2)c2c1C(=O)N(CCc1cn3ccccc3n1)C2 [compound 448, 2-(2-Imidazo[1,2-a]pyridin-2-yl-ethyl)-7-methoxy-4-pyridin-4-yl-2,3-dihydro-isoindol-1-one trifluoroacetate]
5 | 100 to 220 | 100 to 220 | 0.2 to 0.5 | O=C1c2c(cccc2N2CCOCC2)CN1CCc1nc2ccccc2n1C(F)F [compound 449, 2-[2-(1-Difluoromethyl-1H-benzoimidazol-2-yl)-ethyl]-7-morpholin-4-yl-2,3-dihydro-isoindol-1-one trifluoroacetate]
6 | > 220 | 100 to 220 | 0.2 to 0.5 | O=C1c2c(cccc2-c2ccncc2)CN1CCc1nc2ccccc2n1C(F)F [compound 450, 2-[2-(1-Difluoromethyl-1H-benzoimidazol-2-yl)-ethyl]-7-pyridin-4-yl-2,3-dihydro-isoindol-1-one trifluoroacetate]
7 | < 100 | 100 to 220 | < 0.1 | O=C1c2nccc(-c3ccncc3)c2CN1CCc1ccc2ccccc2n1 [compound 451, 4-Pyridin-4-yl-6-(2-quinolin-2-yl-ethyl)-5,6-dihydro-pyrrolo[3,4-b]pyridin-7-one]
8 | < 100 | < 100 | 0.2 to 0.5 | O=C1c2nccc(-c3ccncc3)c2CN1CCc1cn2ccccc2n1 [compound 452, 6-(2-Imidazo[1,2-a]pyridin-2-yl-ethyl)-4-pyridin-4-yl-5,6-dihydro-pyrrolo[3,4-b]pyridin-7-one]
9 | < 100 | < 100 | 0.1 to 0.2 | COc1ccc(-c2cc[nH]n2)c2c1C(=O)N(CCc1cn3ccccc3n1)C2 [compound 454, 2-(2-Imidazo[1,2-a]pyridin-2-yl-ethyl)-7-methoxy-4-(1H-pyrazol-3-yl)-2,3-dihydro-isoindol-1-one]
10 | < 100 | 100 to 220 | < 0.1 | COc1ccc(-c2cccnc2)c2c1C(=O)N(CCc1cn3ccccc3n1)C2 [compound 456, 2-(2-Imidazo[1,2-a]pyridin-2-yl-ethyl)-7-methoxy-4-pyridin-3-yl-2,3-dihydro-isoindol-1-one trifluoroacetate]
11 | 100 to 220 | 100 to 220 | < 0.1 | COc1ccc(-c2ccc(OC)c3c2CN(CCc2cn4ccccc4n2)C3=O)cc1 [compound 457, 2-(2-Imidazo[1,2-a]pyridin-2-yl-ethyl)-7-methoxy-4-(4-methoxy-phenyl)-2,3-dihydro-isoindol-1-one trifluoroacetate]
12 | < 100 | < 100 | 0.2 to 0.5 | Cn1nccc1-c1ccnc2c1CN(CCc1ccc3ccccc3n1)C2=O [compound 459, 4-(2-Methyl-2H-pyrazol-3-yl)-6-(2-quinolin-2-yl-ethyl)-5,6-dihydro-pyrrolo[3,4-b]pyridin-7-one trifluoroacetate]
13 | < 100 | > 220 | 0.1 to 0.2 | COc1ccc(-c2ccnc3c2CN(CCc2cn4ccccc4n2)C3=O)cc1 [compound 461, 6-(2-Imidazo[1,2-a]pyridin-2-yl-ethyl)-4-(4-methoxy-phenyl)-5,6-dihydro-pyrrolo[3,4-b]pyridin-7-one trifluoroacetate]
14 | < 100 | < 100 | 0.1 to 0.2 | O=C1c2nccc(-c3cccnc3)c2CN1CCc1ccc2ccccc2n1 [compound 463, 4-Pyridin-3-yl-6-(2-quinolin-2-yl-ethyl)-5,6-dihydro-pyrrolo[3,4-b]pyridin-7-one trifluoroacetate]
15 | < 100 | < 100 | < 0.1 | COc1ccc(-c2ccnn2C)c2c1C(=O)N(CCc1cn3ccccc3n1)C2 [compound 464, 2-(2-Imidazo[1,2-a]pyridin-2-yl-ethyl)-7-methoxy-4-(2-methyl-2H-pyrazol-3-yl)-2,3-dihydro-isoindol-1-one trifluoroacetate]
16 | < 100 | < 100 | < 0.1 | O=C1c2c(-c3ccncc3)ccnc2CN1CCc1cnc2ccccc2n1 [compound 465, 4-(4-Pyridyl)-6-(2-quinoxalin-2-ylethyl)-7H-pyrrolo[3,4-b]pyridin-5-one]
17 | < 100 | > 220 | 0.1 to 0.2 | Cc1cccc(CCN2Cc3nccc(N4CCOCC4)c3C2=O)n1 [compound 466, 6-[2-(6-Methyl-2-pyridyl)ethyl]-4-morpholino-7H-pyrrolo[3,4-b]pyridin-5-one]
18 | < 100 | < 100 | 0.1 to 0.2 | O=C1c2nccc(-c3cncnc3)c2CN1CCc1ccc2ccccc2n1 [compound 467, 4-Pyrimidin-5-yl-6-[2-(2-quinolyl)ethyl]-5H-pyrrolo[3,4-b]pyridin-7-one]
19 | 100 to 220 | 100 to 220 | < 0.1 | O=C1c2c(-c3ccncc3)ccnc2CN1CCc1ccc2sccc2n1 [compound 472, 4-(4-Pyridyl)-6-(2-thieno[3,2-b]pyridin-5-ylethyl)-7H-pyrrolo[3,4-b]pyridin-5-one]
20 | 100 to 220 | 100 to 220 | 0.1 to 0.2 | Cc1cnc(CCN2Cc3nccc(-c4ccncc4)c3C2=O)c(C)c1 [compound 473, 6-[2-(3,5-Dimethyl-2-pyridyl)ethyl]-4-(4-pyridyl)-7H-pyrrolo[3,4-b]pyridin-5-one]
21 | 100 to 220 | 100 to 220 | 0.1 to 0.2 | Cc1ccc(CCN2Cc3nccc(-c4ccncc4)c3C2=O)nc1C [compound 474, 6-[2-(5,6-Dimethyl-2-pyridyl)ethyl]-4-(4-pyridyl)-7H-pyrrolo[3,4-b]pyridin-5-one trifluoroacetate]
22 | < 100 | < 100 | 0.2 to 0.5 | Cc1ccc(CCN2Cc3nccc(N4CCS(=O)(=O)CC4)c3C2=O)nc1 [compound 479, 4-(1,1-Dioxo-1,4-thiazinan-4-yl)-6-[2-(5-methyl-2-pyridyl)ethyl]-7H-pyrrolo[3,4-b]pyridin-5-one trifluoroacetate]
23 | < 100 | < 100 | 0.2 to 0.5 | Cc1ccc(CCN2Cc3nccc(-c4ccncc4)c3C2=O)nc1 [compound 481, 6-[2-(5-Methyl-2-pyridyl)ethyl]-4-(4-pyridyl)-7H-pyrrolo[3,4-b]pyridin-5-one trifluoroacetate]
24 | < 100 | < 100 | 0.1 to 0.2 | O=C1c2c(cccc2N2CCOCC2)CN1CCc1cnc2ccccc2n1 [compound 482, 7-Morpholino-2-(2-quinoxalin-2-ylethyl)isoindolin-1-one]
25 | < 100 | < 100 | < 0.1 | COc1cccc(CCN2Cc3nccc(N4CCOCC4)c3C2=O)n1 [compound 483, 6-[2-(6-Methoxy-2-pyridyl)ethyl]-4-morpholino-7H-pyrrolo[3,4-b]pyridin-5-one]
26 | 100 to 220 | 100 to 220 | < 0.1 | [2H]C1([2H])OC([2H])([2H])C([2H])([2H])N(c2ccnc3c2C(=O)N(CCc2ccc4ccccc4n2)C3)C1([2H])[2H] [compound 485, 4-(2,2,3,3,5,5,6,6-Octadeuteriomorpholin-4-yl)-6-[2-(2-quinolyl)ethyl]-7H-pyrrolo[3,4-b]pyridin-5-one]
27 | 100 to 220 | > 220 | < 0.1 | O=C1c2c(N3CCOCC3)ccnc2CN1CCc1ccc(-c2ccccc2)cn1 [compound 486, 4-Morpholino-6-[2-(5-phenyl-2-pyridyl)ethyl]-7H-pyrrolo[3,4-b]pyridin-5-one]
28 | 100 to 220 | > 220 | 0.2 to 0.5 | O=C1c2c(-c3ccncc3)ccnc2CN1CCc1ccc(-c2ccccc2)cn1 [compound 488, 6-[2-(5-Phenyl-2-pyridyl)ethyl]-4-(4-pyridyl)-7H-pyrrolo[3,4-b]pyridin-5-one trifluoroacetate]
29 | 100 to 220 | 100 to 220 | < 0.1 | Cc1cnc(CCN2Cc3nccc(N4CCOCC4)c3C2=O)c(C)c1 [compound 489, 6-[2-(3,5-Dimethyl-2-pyridyl)ethyl]-4-morpholino-7H-pyrrolo[3,4-b]pyridin-5-one]
30 | 100 to 220 | 100 to 220 | < 0.1 | O=C1c2c(N3CCOCC3)ccnc2CN1CCc1ccc2sccc2n1 [compound 491, 4-Morpholino-6-(2-thieno[3,2-b]pyridin-5-ylethyl)-7H-pyrrolo[3,4-b]pyridin-5-one]
